Measurements taken from patent publication US20060264460A1 (Wyeth, priority 2005, published 2006).

Molecular target: T1, human Cot/Tpl2 kinase (Homo sapiens, UniProt P41279)
T1 construct: human Cot/Tpl2 kinase construct encoding residues 30-398; 6His (N); made in house; host or cells: Sf9 insect cells, baculovirus system (BD Biosciences)
Assay: Tpl2/Cot kinase assay: GST-MEK1 phosphorylation detected by ELISA (DELFIA Eu)
Type: biochemical
Settings: 0.4 nM Tpl2, 35 nM GST-MEK1, 50 uM ATP, 1 h at 30° C.
Method in brief: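 His-tagged human Tpl2 from Sf9 cells, Ni-affinity and size-exclusion purified (monomer). 0.4 nM Tpl2 with 35 nM GST-MEK1, 50 uM ATP, MOPS pH 7.2, 1% DMSO, 1 h at 30° C; EDTA stop. MEK1 Ser217/221 phosphorylation detected by anti-phospho-MEK1 and Eu-labelled secondary ELISA; IC50 fitted.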

T1 sequence (P41279 30-398): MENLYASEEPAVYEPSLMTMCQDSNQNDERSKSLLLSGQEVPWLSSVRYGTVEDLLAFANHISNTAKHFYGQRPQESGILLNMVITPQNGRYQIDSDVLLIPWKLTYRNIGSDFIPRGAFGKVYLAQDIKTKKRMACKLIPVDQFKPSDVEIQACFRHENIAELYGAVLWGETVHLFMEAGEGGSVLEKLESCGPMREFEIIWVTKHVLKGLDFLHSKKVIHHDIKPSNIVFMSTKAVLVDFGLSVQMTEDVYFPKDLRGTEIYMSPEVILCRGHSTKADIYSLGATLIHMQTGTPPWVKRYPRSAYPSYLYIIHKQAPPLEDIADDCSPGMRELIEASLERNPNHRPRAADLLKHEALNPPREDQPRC

| IC50 | Compound |
| --- | --- |
| 70 nM | CS(=O)(=O)NCCNc1cc(Cl)c2ncc(C#N)c(Nc3ccc(F)c(Cl)c3)c2c1 [Example 326, N-[2-({8-chloro-4-[(3-chloro-4-fluorophenyl)amino]-3-cyanoquinolin-6-yl}amino)ethyl]methanesulfonamide] |
| 4.4 nM | CN1CCCC(n2cc(CNc3cc(Cl)c4ncc(C#N)c(Nc5ccc(F)c(Cl)c5)c4c3)nn2)CC1 (centres unmarked) [Example 329, 8-chloro-4-[(3-chloro-4-fluorophenyl)amino]-6-({[1-(1-methylazepan-4-yl)-1H-1,2,3-triazol-4-yl]methyl}amino)quinoline-3-carbonitrile] |
| 8.5 nM | CCN1CCCC(n2cc(CNc3cc(Cl)c4ncc(C#N)c(Nc5ccc(F)c(Cl)c5)c4c3)nn2)CC1 (centres unmarked) [Example 330, 8-chloro-4-[(3-chloro-4-fluorophenyl)amino]-6-({[1-(1-ethylazepan-4-yl)-1H-1,2,3-triazol-4-yl]methyl}amino)quinoline-3-carbonitrile] |
| 8.2 nM | CC(C)N1CCCC(n2cc(CNc3cc(Cl)c4ncc(C#N)c(Nc5ccc(F)c(Cl)c5)c4c3)nn2)CC1 (centres unmarked) [Example 331, 8-chloro-4-[(3-chloro-4-fluorophenyl)amino]-6-({[1-(1-isopropylazepan-4-yl)-1H-1,2,3-triazol-4-yl]methyl}amino)quinoline-3-carbonitrile] |
| 39 nM | N#Cc1cnc2c(Cl)cc(NCc3cn(C4CCC5(CC4)OCCO5)nn3)cc2c1Nc1ccc(F)c(Cl)c1 [Example 332, 8-chloro-4-[(3-chloro-4-fluorophenyl)amino]-6-({[1-(1,4-dioxaspiro[4.5]dec-8-yl)-1H-1,2,3-triazol-4-yl]methyl}amino)quinoline-3-carbonitrile] |
| 1.1 nM | N#Cc1cnc2c(Cl)cc(NCc3cn(C4CCC(=O)CC4)nn3)cc2c1Nc1ccc(F)c(Cl)c1 [Example 333, 8-chloro-4-[(3-chloro-4-fluorophenyl)amino]-6-({[1-(4-oxocyclohexyl)-1H-1,2,3-triazol-4-yl]methyl}amino)quinoline-3-carbonitrile] |
| 20 nM | N#Cc1cnc2c(Cl)cc(NCc3cn(C4CCC(O)(c5ccccn5)CC4)nn3)cc2c1Nc1ccc(F)c(Cl)c1 (centres unmarked) [Example 335, 8-chloro-4-[(3-chloro-4-fluorophenyl)amino]-6-({[1-(4-hydroxy-4-pyridin-2-ylcyclohexyl)-1H-1,2,3-triazol-4-yl]methyl}amino)quinoline-3-carbonitrile] |

Same assay, conditions: Table 2; Tpl2/Cot kinase, GST-MEK1 substrate, 50 uM ATP

| Compound | IC50 |
| --- | --- |
| N#Cc1cnc2ccc(Br)cc2c1Nc1ccc(Oc2ccccc2)cc1 [Example 336] | 1000 nM |
| COc1ccc(CNc2ccc3ncc(C#N)c(Nc4ccc(F)c(F)c4)c3c2)cn1 [Example 340] | 440 nM |
| N#Cc1cnc2ccc(NCc3ccc(=O)[nH]c3)cc2c1Nc1ccc(F)c(F)c1 [Example 341] | 400 nM |
| CS(=O)(=O)c1ccc(CNc2ccc3ncc(C#N)c(Nc4cccc(Cl)c4)c3c2)cc1 [Example 349] | 370 nM |
| CN(C)C(=O)c1cc(N)cc2c(Nc3cccc(Cl)c3)c(C#N)cnc12 [Example 359] | 8400 nM |
| N#Cc1cnc2ccc(NCc3ccccn3)cc2c1NC1CCCCC1 [Example 360] | 210 nM |
| N#Cc1cnc2ccc(NCc3ccccn3)cc2c1Nc1ccccc1 [Example 361] | 250 nM |
| N#Cc1cnc2c(Br)cc([N+](=O)[O-])cc2c1Nc1cccc(Cl)c1 [Example 362] | > 10000 nM |
| N#Cc1cnc2ccc(N)cc2c1NC1CCN(Cc2ccccc2)CC1 [Example 363] | > 40000 nM |
| N#Cc1cnc2c(Br)cc(N)cc2c1Nc1cccc(Cl)c1 [Example 365] | 390 nM |
| CCc1nc(C)c(CNc2ccc3ncc(C#N)c(Nc4ccc(F)c(Cl)c4)c3c2)[nH]1 [Example 369] | 640 nM |
| COCCOc1ccc(CNc2ccc3ncc(C#N)c(Nc4ccc(F)c(Cl)c4)c3c2)cc1Br [Example 371] | 380 nM |
| N#Cc1cnc2c(Br)cc(NCc3cccnc3)cc2c1Nc1cccc(Cl)c1 [Example 374] | 36 nM |
| CN(C)C(=O)c1cc(NCc2cccnc2)cc2c(Nc3cccc(Cl)c3)c(C#N)cnc12 [Example 376] | 400 nM |
| N#Cc1cnc2ccc(NC3CCN(Cc4ccccc4)CC3)cc2c1Nc1ccc(F)c(Cl)c1 [Example 378] | 1700 nM |
| CC(C)(C)OC(=O)N1CCC(Nc2ccc3ncc(C#N)c(Nc4ccc(F)c(Cl)c4)c3c2)CC1 [Example 379] | > 40000 nM |
| COc1cc(NCc2cccnc2)cc2c(Nc3ccc(F)c(Cl)c3)c(C#N)cnc12 [Example 380] | 1100 nM |
| CC(C)(C)OC(=O)COc1ccc(CNc2ccc3ncc(C#N)c(Nc4ccc(F)c(Cl)c4)c3c2)cc1Br [Example 381] | > 40000 nM |
| N#Cc1cnc2ccc(NCc3cc[nH]n3)cc2c1Nc1ccc(F)c(Cl)c1 [Example 382] | 74 nM |
| N#Cc1cnc2ccc(NCc3ccc[n+]([O-])c3)cc2c1Nc1ccc(F)c(Cl)c1 [Example 384] | 130 nM |
| COc1cc(NCc2cccnc2)cc2c(Nc3ccc(C)c(O)c3)c(C#N)cnc12 [Example 386] | > 40000 nM |
| N#Cc1cnc2ccc(N)cc2c1Nc1ccc(Cc2ccccc2)cc1 [Example 390] | 43 nM |
| Cc1cc2ncc(C#N)c(Nc3ccc(F)c(Cl)c3)c2cc1N [Example 392] | > 40000 nM |
| N#Cc1cnc2c(Br)cc(N)cc2c1Nc1ccc(F)c(Cl)c1 [Example 393] | 520 nM |
| N#Cc1cnc2c(C(F)(F)F)cc(N)cc2c1Nc1ccc(F)c(Cl)c1 [Example 394] | 5800 nM |
| CN(C)C(=O)c1cc([N+](=O)[O-])cc2c(Nc3ccc(F)c(Cl)c3)c(C#N)cnc12 [Example 395] | > 40000 nM |
| CN(C)C(=O)c1cc(N)cc2c(Nc3ccc(F)c(Cl)c3)c(C#N)cnc12 [Example 396] | 6000 nM |
| COC(=O)c1cccc(CNc2ccc3ncc(C#N)c(Nc4ccc(F)c(Cl)c4)c3c2)c1 [Example 397] | 320 nM |
| N#Cc1cnc2ccc(NCc3cccc(C(=O)O)c3)cc2c1Nc1ccc(F)c(Cl)c1 [Example 398] | 180 nM |
| N#Cc1cnc2ccc(NCc3cccc(C(N)=O)c3)cc2c1Nc1ccc(F)c(Cl)c1 [Example 399] | 460 nM |

More lines, now with the values ahead:

| IC50 | Compound |
| --- | --- |
| 1000 nM | N#Cc1cnc2ccc(NCCN3CCOCC3)cc2c1Nc1ccc(F)c(Cl)c1 [Example 337] |
| 150 nM | N#Cc1cnc2ccc(NCCN3CCOCC3)cc2c1Nc1ccc(Oc2ccccc2)cc1 [Example 338] |
| > 10000 nM | N#Cc1cnc2ccc(NCCN3CCOCC3)cc2c1Nc1cccc(C(F)(F)F)c1 [Example 342] |
| 1040 nM | Cn1cc(CNc2ccc3ncc(C#N)c(Nc4ccc(F)c(F)c4)c3c2)ccc1=O [Example 343] |
| 1480 nM | N#Cc1cnc2ccc(NCc3ccc(OCCN4CCOCC4)nc3)cc2c1Nc1ccc(F)c(F)c1 [Example 344] |
| 1700 nM | N#Cc1cnc2ccc(NCc3ccc(=O)n(CCN4CCOCC4)c3)cc2c1Nc1ccc(F)c(F)c1 [Example 345] |
| 600 nM | N#Cc1cnc2ccc(NCc3ccc4c(c3)OCO4)cc2c1Nc1cccc(Cl)c1 [Example 346] |
| 600 nM | CN(C)CCCOc1ccc(CNc2ccc3ncc(C#N)c(Nc4cccc(Cl)c4)c3c2)cc1 [Example 347] |
| 90 nM | N#Cc1cnc2ccc(NCc3cccnc3)cc2c1Nc1cccc(Cl)c1 [Example 348] |
| 690 nM | N#Cc1cnc2ccc(NCCN3CCOCC3)cc2c1Nc1cccc(Cl)c1 [Example 350] |
| 1900 nM | N#Cc1cnc2ccc(NCCN3CCOCC3)cc2c1Nc1cccc(F)c1 [Example 351] |
| > 10000 nM | CC(C)c1cccc(Nc2c(C#N)cnc3ccc(NCCN4CCOCC4)cc23)c1 [Example 352] |
| 470 nM | N#Cc1cnc2ccc(NCCN3CCOCC3)cc2c1Nc1ccc(Sc2ccccc2)c(Cl)c1 [Example 353] |
| > 10000 nM | CN(C)c1cccc(Nc2c(C#N)cnc3ccc(NCCN4CCOCC4)cc23)c1 [Example 354] |
| > 10000 nM | N#Cc1cnc2ccc(NCCN3CCOCC3)cc2c1Nc1ccc(Br)cc1 [Example 355] |
| > 10000 nM | N#Cc1cnc2ccc(NCCN3CCOCC3)cc2c1Nc1ccc2[nH]ccc2c1 [Example 356] |

| IC50 | Compound |
| --- | --- |
| 1300 nM | C#Cc1cccc(Nc2c(C#N)cnc3ccc(NCCN4CCOCC4)cc23)c1 [Example 357] |
| > 40000 nM | N#Cc1cnc2ccc(NCCN3CCOCC3)cc2c1Sc1ccc(F)c(Cl)c1 [Example 358] |
| > 10000 nM | CN1CCC(Nc2ccc3ncc(C#N)c(Nc4ccc(F)c(Cl)c4)c3c2)CC1 [Example 364] |
| 25500 nM | CC(C)N1CCC(Nc2ccc3ncc(C#N)c(Nc4ccc(F)c(Cl)c4)c3c2)CC1 [Example 366] |
| > 40000 nM | N#Cc1cnc2ccc(NCCN3CCOCC3)cc2c1NC1CCN(Cc2ccccc2)CC1 [Example 367] |
| 3.2 nM | Cc1c(CNc2ccc3ncc(C#N)c(Nc4ccc(F)c(Cl)c4)c3c2)ncn1C [Example 370] |
| 420 nM | N#Cc1cnc2c(Br)cc(NCCN3CCOCC3)cc2c1Nc1cccc(Cl)c1 [Example 372] |
| 14 nM | Cc1c(CNc2ccc3ncc(C#N)c(Nc4ccc(F)c(Cl)c4)c3c2)ncn1CCN1CCOCC1 [Example 373] |
| > 40000 nM | CCN1CCC(Nc2ccc3ncc(C#N)c(Nc4ccc(F)c(Cl)c4)c3c2)C(C)C1 (centres unmarked) [Example 377] |
| 5200 nM | COc1cc(NCCN2CCOCC2)cc2c(Nc3ccc(F)c(Cl)c3)c(C#N)cnc12 [Example 383] |
| 110 nM | Cc1cc(CNc2ccc3ncc(C#N)c(Nc4ccc(F)c(Cl)c4)c3c2)n[nH]1 [Example 385] |
| > 40000 nM | CN(C)Cc1cc(NCCN2CCOCC2)cc2c(Nc3cccc(Br)c3)c(C#N)cnc12 [Example 387] |
| 200 nM | Cc1ncn(C)c1CNc1ccc2ncc(C#N)c(Nc3ccc(F)c(Cl)c3)c2c1 [Example 388] |
| > 40000 nM | Cn1cc(Cl)c(CNc2ccc3ncc(C#N)c(Nc4ccc(F)c(Cl)c4)c3c2)n1 [Example 389] |
| 26 nM | N#Cc1cnc2ccc(NCCN3CCOCC3)cc2c1Nc1ccc(Cc2ccccc2)cc1 [Example 391] |
